From article PMC7613515, “Reading and erasing of the phosphonium analogue of trimethyllysine by epigenetic proteins” (Communications Chemistry, 2022)

Test system: KDM7BJmjC (M37–N483)
Experiment: MALDI-TOF demethylation assay, KDM7BJmjC
Assay type: biochemical
Settings: 1 hr
Text: To investigate whether H3KP9me3 can be demethylated by other human KDM4 subfamily members, recombinant KDM4AJmjC (M1–L359) and KDM4DJmjC (M1–L358) were produced in E. coli following an adaption of literature procedures[38],[39]. […] To test the ability of KDM3 and KDM7 subfamily representatives to demethylate H3KP9me2 or H3KP9me3, KDM3AJmjC (T515–S1317) and KDM7BJmjC (M37–N483) were produced using baculovirus/sf9 and E. coli expression systems, respectively[40],[41]. The synthesis of a histone H3 mimic peptide H3KP9me2 substrate is challenging as the tri-alkylated phosphine group is susceptible to oxidation during synthesis of the protected amino acid and during SPPS requiring oxygen-free conditions. Thus, to investigate if KDM3AJmjC or KDM7BJmjC can catalyse demethylation of H3KP9me2, an appropriate H3KP9me2 substrate was prepared in situ from H3KP9me3 using KDM4EJmjC (2.0 µM), in the presence of KDM3AJmjC (2.0 µM) or KDM7BJmjC (2.0 µM).
A Bruker Daltonics MALDI-TOF/TOF AutoflexSpeed machine and Bruker MTP 384 target plates (polished steel BC, Part: 8280781) were used. The machine was controlled using Flex control (v. 3.4 build 135.10) and Compass for flex series (v. 1.4) software. Measurements were in the positive ion mode with the reflectron mode enabled. […] Samples were then analysed by MALDI-TOF. […]

Substance: ARTKQTAR(KPme3)STGGKA [H3KP9me3, histone H3 residues 1–15 with trimethylphosphonium lysine analogue at position 9]
- demethylation in combination with KDM4EJmjC (KDM7BJmjC 2.0 µM plus KDM4EJmjC 2.0 µM, peptide 5.0 µM): produced H3KP9me2 (due to KDM4EJmjC catalysis), but did not result in masses consistent with H3KP9me1 or H3KP9
- demethylation (KDM7BJmjC 2.0 µM, H3KP9me2 prepared in situ with KDM4EJmjC): do not catalyse demethylation of H3K9me3 (as anticipated) or H3KP9me3
